Where a SMILES comes first, the peptide text is derived from it. The star is where a group is joined. Cbz = O=C(OCc1ccccc1)*
Assays:
[1] = cited from earlier work
MCF-7 cells = assay: aggresome formation and immunostaining; type: cell-based, human; settings: MCF-7, 24 hours; SP-2-225 10 μmol/L, MG-132 5 μmol/L
[2] = test system: MCF-7 breast cancer cells; assay: immunoblot of substrate acetylation in MCF-7 cells; type: cell-based, human; settings: SP-2-225 10 μmol/L, SAHA and SP-1–161 1 μmol/L, Western blot
bladder cancer = settings: cited from earlier work

Cc1[nH]c2ccccc2c1CCNCc1ccc(/C=C/C(=O)NO)cc1 [LBH589]
direct cytotoxic effect [1]: direct cytotoxic effect even at nanomolar concentrations

CC(C)C[C@@H](C=O)NC(=O)[C@H](CC(C)C)NC(=O)[C@H](CC(C)C)NC(=O)OCc1ccccc1 [MG-132] (Cbz-Leu-Leu-Leu-aldehyde)
aggresome formation (MCF-7 cells): significant aggresome formation

O=C(CCCCCCC(=O)Nc1ccccc1)NO [SAHA, suberoylanilide hydroxamic acid]
acetylation of histone H3 [2]: increased the acetylation of α-tubulin and histone H3
acetylation of α-tubulin [2]: increased the acetylation of α-tubulin

O=C(CCCCCCC(=O)Nc1ccc([C@H]2O[C@@H](CSc3nc(-c4ccccc4)c(-c4ccccc4)o3)C[C@@H](c3ccc(CO)cc3)O2)cc1)NO [Tubacin]
radiosensitization effect (bladder cancer): demonstrated radiosensitization effect
